In patent publication US20180128830A1, “DETECTION OF HUMAN CYTOMEGALOVIRUS IN BREAST CANCER” (priority 2015, published 2018):
Where “and” joins values, the source holds several entries; their conditions need not be identical. Equal values may be shown once.

Experiments:
[1] = test system: MDA-MB-231 cells; assay: Standard cell counts (hemacytometer); format: cell-based, human; conditions: 100 ng/ml, 6-well dishes
Method: Cells were seeded into 96-well dishes at a density of 1×10^4 cell per well in complete medium with varying doses of cmvIL-10, and then cell viability measured at the indicated time points using the Cell Titer Glo Assay kit according to manufacturer's instructions (Promega). DNA synthesis was measured in cells prepared in the same way using the BrdU Cell Proliferation ELISA Kit (Roche, Basel, Switzerland). For experiments using inhibitors, cells were cultivated in 96-well dishes as above with a final concentration of 10 μM inhibitor and BrdU incorporation evaluated after 72 hrs. For cell counts, cells were seeded into 6-well plates at a density of 2×10^5 cells per well, harvested via trypsinization, and counted using a hemacytometer at the indicated time points. The TACS Annexin V-FITC Detection Kit (Trevigen, Gaithersburg, Md.) was used to stain cells harvested from 70% confluent T75 flasks that had been treated with 100 μM etoposide for 48 hrs in the presence or absence of 100 ng/ml cmvIL-10. Cells were then analyzed via flow cytometry to detect fluorescence. For viability assays, Cell Titer Glo reagent was utilized to quantify cells that had been seeded into 96-well dishes at a density of 1×10^4 cell per well in complete medium with varying doses of etoposide in the presence or absence of 100 ng/ml cmvIL-10 as indicated

[2] = test system: Stat3; assay: Western blot for Stat3 phosphorylation in MDA-MB-231 cells; format: cell-based, human; conditions: 100 ng/ml, 15 min
Method: For western blotting, cells were treated with 100 ng/ml cmvIL-10, hIL-10, IFNγ or PBS for 15 min, then harvested into cell lysis buffer (150 mM NaCl, 20 mM HEPES, 0.5% Triton-X-100, 1 mM NaOV4, 1 mM EDTA, 0.1% NaN3). Lysates were clarified, proteins were separated via SDS-PAGE, and then transferred to a nitrocellulose membrane. Then membrane was incubated in blocking solution (5% milk+1×TBS-T) for 1 hr, then probed with primary antibody at a 1:1000 dilution (total Stat3 or pStat3, total Stat1 or pStat1) in blocking solution overnight at 4° C. After washing, the membranes were incubated with a 1:2000 dilution of appropriate AP-conjugated secondary antibody and bands were detected using Western Blue stabilized AP substrate (Promega, Madison, Wis.). For analysis of secreted proteins, supernatants were collected at various time points, analyzed by SDS-PAGE and then immunoblotted as above for cmvIL-10, hIL-10, or serpin E1/PAI.

[3] = test system: MDA-MB-231 cells; assay: Transcriptional profiling, Human Tumor Metastasis RT2 Profiler PCR Array; format: cell-based; conditions: 100 ng/mL, 5 hrs
Method: RNA was harvested from 10×10^6 MDA-MB-231 cells that were mock treated or treated with 100 ng/mL cmvIL-10 or hIL-10 for 5 hrs using the RNeasy Midi Kit and RNAse-Free DNase set (Qiagen, Valencia, Calif.). From the isolated RNA, cDNA was prepared using the RT^2 First Strand Kit (SA Biosciences, Frederick, Md.) and subsequently loaded into a 96-well breast cancer metastasis profiler PCR array (PAHS-028ZD) with system RT^2 SYBR Green Mastermix (SA Biosciences). The plates were run using the CFX96 Real-Time system cycler (BioRad, Hercules, Calif.) with the following amplification program: 95° C. for 10 min, 95° C. for […] with a slow ramp rate for 1.0 c/sec and 60° C. for 1 min. The data from three biological replicates for each treatment was analyzed by the ΔΔCT method according to manufacturer's instructions using the RT^2 profiler PCR array data analysis program located on the SABiosciences web portal and is reported as fold change relative to control.

## hIL-10: purified recombinant human interleukin-10 from R&D Systems
[1]
  cell numbers: higher cell numbers than control cultures
[2]
  83 kD band of phosphorylated Stat3 (pStat3): detected
[3]; ACTB mRNA
  Fold Change vs. Mock, ACTB: 1.3287 fold
[3]; APC mRNA
  Fold Change vs. Mock, APC: 1.0052 fold
[3]; B2M mRNA
  Fold Change vs. Mock, B2M: 0.9897 fold
[3]; BRMS1 mRNA
  Fold Change vs. Mock, BRMS1: 1.1154 fold
[3]; CCL7 mRNA
  Fold Change vs. Mock, CCL7: 0.9314 fold
[3]; CD44 mRNA
  Fold Change vs. Mock, CD44: 1.3402 fold
[3]; CD82 mRNA
  Fold Change vs. Mock, CD82: 1.1019 fold
[3]; CDH1 mRNA
  Fold Change vs. Mock, CDH1: 0.7618 fold
[3]; CDH6 mRNA
  Fold Change vs. Mock, CDH6: 0.9314 fold
[3]; CDH11 mRNA
  Fold Change vs. Mock, CDH11: 1.0425 fold
[3]; CDKN2A mRNA
  Fold Change vs. Mock, CDKN2A: 0.9314 fold
[3]; CHD4 mRNA
  Fold Change vs. Mock, CHD4: 1.1115 fold
[3]; COL4A2 mRNA
  Fold Change vs. Mock, COL4A2: 1.51 fold and 1.5131 fold
[3]; CST7 mRNA
  Fold Change vs. Mock, CST7: 0.8858 fold
[3]; CTBP1 mRNA
  Fold Change vs. Mock, CTBP1: 0.9576 fold
[3]; CTNNA1 mRNA
  Fold Change vs. Mock, CTNNA1: 0.9428 fold
[3]; CTSK mRNA
  Fold Change vs. Mock, CTSK: 0.8482 fold
[3]; CTSL1 mRNA
  Fold Change vs. Mock, CTSL1: 0.8981 fold
[3]; CXCL12 mRNA
  Fold Change vs. Mock, CXCL12: 0.9314 fold
[3]; CXCR4 mRNA
  Fold Change vs. Mock, CXCR4: 0.8751 fold
[3]; DENR mRNA
  Fold Change vs. Mock, DENR: 0.9626 fold
[3]; EPHB2 mRNA
  Fold Change vs. Mock, EPHB2: 0.9028 fold
[3]; ETV4 mRNA
  Fold Change vs. Mock, ETV4: 1.0175 fold
[3]; EWSR1 mRNA
  Fold Change vs. Mock, EWSR1: 1.3104 fold
[3]; FAT1 mRNA
  Fold Change vs. Mock, FAT1: 1.4414 fold
[3]; FGFR4 mRNA
  Fold Change vs. Mock, FGFR4: 0.9693 fold
[3]; FLT4 mRNA
  Fold Change vs. Mock, FLT4: 1.0317 fold
[3]; FN1 mRNA
  Fold Change vs. Mock, FN1: 1.2100 fold
[3]; FXYD5 mRNA
  Fold Change vs. Mock, FXYD5: 1.0479 fold
[3]; GAPDH mRNA
  Fold Change vs. Mock, GAPDH: 1.2121 fold
[3]; GNRH1 mRNA
  Fold Change vs. Mock, GNRH1: 1.1647 fold
[3]; HGF mRNA
  Fold Change vs. Mock, HGF: 0.9314 fold
[3]; HPRT1 mRNA
  Fold Change vs. Mock, HPRT1: 1.3827 fold
[3]; HPSE mRNA
  Fold Change vs. Mock, HPSE: 0.8645 fold
[3]; HRAS mRNA
  Fold Change vs. Mock, HRAS: 1.0625 fold
[3]; HTATIP2 mRNA
  Fold Change vs. Mock, HTATIP2: 0.9138 fold
[3]; IGF1 mRNA
  Fold Change vs. Mock, IGF1: 0.9794 fold
[3]; IL1B mRNA
  Fold Change vs. Mock, IL1B: 0.6771 fold
[3]; IL18 mRNA
  Fold Change vs. Mock, IL18: 0.7526 fold
[3]; ITGA7 mRNA
  Fold Change vs. Mock, ITGA7: 0.8796 fold
[3]; ITGB3 mRNA
  Fold Change vs. Mock, ITGB3: 1.0317 fold
[3]; KISS1R mRNA
  Fold Change vs. Mock, KISS1R: 0.9314 fold
[3]; KISS1 mRNA
  Fold Change vs. Mock, KISS1: 1.5856 fold
[3]; KRAS mRNA
  Fold Change vs. Mock, KRAS: 0.9931 fold
[3]; MCAM mRNA
  Fold Change vs. Mock, MCAM: 1.0353 fold
[3]; MDM2 mRNA
  Fold Change vs. Mock, MDM2: 0.9461 fold
[3]; MET mRNA
  Fold Change vs. Mock, MET: 1.1173 fold
[3]; METAP2 mRNA
  Fold Change vs. Mock, METAP2: 1.0736 fold
[3]; MGAT5 mRNA
  Fold Change vs. Mock, MGAT5: 1.3590 fold
[3]; MMP2 mRNA
  Fold Change vs. Mock, MMP2: 1.5157 fold
[3]; MMP3 mRNA
  Fold Change vs. Mock, MMP3: 0.8080 fold
[3]; MMP7 mRNA
  Fold Change vs. Mock, MMP7: 0.8123 fold
[3]; MMP9 mRNA
  Fold Change vs. Mock, MMP9: 0.9347 fold
[3]; MMP10 mRNA
  Fold Change vs. Mock, MMP10: 0.6866 fold
[3]; MMP11 mRNA
  Fold Change vs. Mock, MMP11: 1.0867 fold
[3]; MMP13 mRNA
  Fold Change vs. Mock, MMP13: 0.9777 fold
[3]; MTA1 mRNA
  Fold Change vs. Mock, MTA1: 0.9395 fold
[3]; MTSS1 mRNA
  Fold Change vs. Mock, MTSS1: 1.2397 fold
[3]; MYC mRNA
  Fold Change vs. Mock, MYC: 0.7423 fold
[3]; MYCL1 mRNA
  Fold Change vs. Mock, MYCL1: 1.0644 fold
[3]; NF2 mRNA
  Fold Change vs. Mock, NF2: 1.3496 fold
[3]; NME1 mRNA
  Fold Change vs. Mock, NME1: 1.1000 fold
[3]; NME4 mRNA
  Fold Change vs. Mock, NME4: 0.9965 fold
[3]; NR4A3 mRNA
  Fold Change vs. Mock, NR4A3: 0.8151 fold
[3]; PLAUR (uPAR) mRNA
  Fold Change vs. Mock, PLAUR: 1.87 fold and 1.8628 fold
[3]; PNN mRNA
  Fold Change vs. Mock, PNN: 1.2901 fold
[3]; PTEN mRNA
  Fold Change vs. Mock, PTEN: 0.8645 fold
[3]; RB1 mRNA
  Fold Change vs. Mock, RB1: 0.9298 fold
[3]; RORB mRNA
  Fold Change vs. Mock, RORB: 0.8827 fold
[3]; RPLP0 mRNA
  Fold Change vs. Mock, RPLP0: 1.0000 fold
[3]; RPSA mRNA
  Fold Change vs. Mock, RPSA: 1.0886 fold
[3]; SERPINE1 (PAI-1) mRNA
  Fold Change vs. Mock, SERPINE1: 3.12 fold and 3.0262 fold
[3]; SET mRNA
  Fold Change vs. Mock, SET: 0.9234 fold
[3]; SMAD2 mRNA
  Fold Change vs. Mock, SMAD2: 0.7859 fold
[3]; SMAD4 mRNA
  Fold Change vs. Mock, SMAD4: 0.8279 fold
[3]; SRC mRNA
  Fold Change vs. Mock, SRC: 0.9760 fold
[3]; SSTR2 mRNA
  Fold Change vs. Mock, SSTR2: 0.7120 fold
[3]; SYK mRNA
  Fold Change vs. Mock, SYK: 0.9314 fold
[3]; TCF20 mRNA
  Fold Change vs. Mock, TCF20: 0.9676 fold
[3]; TGEB1 (Transforming growth factor, beta 1) mRNA
  Fold Change vs. Mock, TGEB1: 0.9931 fold
[3]; TIMP2 mRNA
  Fold Change vs. Mock, TIMP2: 0.8601 fold
[3]; TIMP3 mRNA
  Fold Change vs. Mock, TIMP3: 0.7631 fold
[3]; TIMP4 mRNA
  Fold Change vs. Mock, TIMP4: 0.9122 fold
[3]; TNFSF10 mRNA
  Fold Change vs. Mock, TNFSF10: 0.7955 fold
[3]; TP53 mRNA
  Fold Change vs. Mock, TP53: 0.8873 fold
[3]; TRPM1 mRNA
  Fold Change vs. Mock, TRPM1: 0.9314 fold
[3]; TSHR mRNA
  Fold Change vs. Mock, TSHR: 0.9314 fold
[3]; VEGFA mRNA
  Fold Change vs. Mock, VEGFA: 0.5987 fold
  VEGFA fold change expressed as negative fold (down-regulation): 1.67 fold
